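Tested at 5 concentrations; 48 h exposure; 96-well plates; endpoints linearly interpolated, else capped at highest concentration. GI50: concentration for 50% inhibition of growth.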 Active and inactive are the calls of the source. Cut-off read from the data, not from the text of the source: active = GI50 up to about 1.1 µM and inactive = higher. Residues, ends and D or L forms follow the SMILES beside them. *: point of attachment. Boc = CC(C)(C)OC(=O)*
Experiments:
Assay in all cases: growth of human tumour cells (NCI), 48 h
[1] = tested on: 786-0
[2] = tested on: A549
[3] = tested on: EKVX
[4] = tested on: KM12
[5] = tested on: M14
[6] = tested on: MOLT-4
[7] = tested on: NCI-H226
[8] = tested on: NCI-H23
[9] = tested on: NCI-H460
[10] = tested on: OVCAR-3
[11] = tested on: OVCAR-8
[12] = tested on: PC-3
[13] = tested on: SK-OV-3
[14] = tested on: SN12C
[15] = tested on: SNB-19
[16] = tested on: SNB-75
[17] = tested on: T47D
[18] = tested on: UACC-257
[19] = tested on: UACC-62
[20] = tested on: SF-539

Measured: GI50

O=C1Nc2cccc(C(F)(F)F)c2/C1=N/Nc1ccccc1[N+](=O)[O-]
inactive: [1] 15.5 µM | [2] 48 µM | [3] 11.6 µM | [4] 5.97 µM | [5] > 100 µM | [6] 28.6 µM | [7] 23.1 µM | [8] 22.1 µM | [9] 17.8 µM | [10] 17.5 µM | [11] 26.1 µM | [12] 37.6 µM | [13] 30.2 µM | [14] 23.4 µM | [15] 51.5 µM | [16] 25.6 µM | [17] 56.6 µM | [18] 10.3 µM | [19] 51.3 µM

c1ccc(-c2cnc3nc4ccccc4nc3n2)cc1
inactive: [1] 3.9 µM | [2] 10 µM | [3] 2.88 µM | [4] 1.22 µM | [5] 6.11 µM | [6] 1.31 µM | [7] 3.23 µM | [8] 3.82 µM | [9] 2.96 µM | [10] 1.16 µM | [11] 1.98 µM | [20] 3.25 µM | [13] 2.87 µM | [14] 9.08 µM | [15] 13.7 µM | [16] 2.66 µM | [17] 3.85 µM | [18] 2.25 µM | [19] 2.85 µM

CC(O)c1c2c(cc3c1CC1(C3)Cc3cc4c(c(C(C)O)c3C1)CCC4)CCC2 (stereo not given)
inactive: [1] 14.8 µM | [2] 13.6 µM | [3] 27.9 µM | [4] 21.8 µM | [5] 18.6 µM | [6] 4.13 µM | [7] 15.6 µM | [8] 15.5 µM | [10] 12.4 µM | [11] 46.2 µM | [12] 18.7 µM | [20] 22.4 µM | [13] 23.2 µM | [14] 16.7 µM | [17] 11.9 µM | [18] 13.9 µM | [19] 19.3 µM

COc1cc2c(cc1OC)CC(=O)c1cc(OC)c(OC)cc1/C=C\2
inactive: [1] > 12.5 µM | [2] > 12.5 µM | [3] > 12.5 µM | [4] 4.55 µM | [5] 9.57 µM | [6] 9.93 µM | [7] > 12.5 µM | [8] > 12.5 µM | [9] > 12.5 µM | [10] > 12.5 µM | [11] > 12.5 µM | [12] > 12.5 µM | [20] > 12.5 µM | [13] > 12.5 µM | [14] > 12.5 µM | [15] > 12.5 µM | [16] 4.83 µM | [18] > 12.5 µM | [19] > 12.5 µM

COc1ccc(C(=O)/C=C2\Nc3cccnc3N\C2=C/C(=O)c2ccc(OC)cc2)cc1
inactive: [1] 2.17 µM | [2] 15.6 µM | [3] 20.8 µM | [4] 23.4 µM | [5] 20.9 µM | [6] 27.9 µM | [7] 4.8 µM | [8] 13.5 µM | [9] 9.18 µM | [10] 14.8 µM | [11] 14.3 µM | [12] > 100 µM | [20] 12.5 µM | [13] 13 µM | [14] 12.2 µM | [15] 18.7 µM | [17] 11.5 µM | [18] 26.7 µM | [19] 17.3 µM

Cc1cc(O)c(C(O)c2ccccn2)cc1O (stereo not given)
inactive: [1] 19.1 µM | [2] 81.1 µM | [3] 18.2 µM | [4] 24.5 µM | [5] 20.2 µM | [6] 13.6 µM | [7] > 10 µM | [8] 18 µM | [9] 49.2 µM | [10] 15 µM | [11] 18.8 µM | [12] 14.1 µM | [20] 38.8 µM | [14] 18.7 µM | [15] 55.3 µM | [16] 14.7 µM | [17] > 10 µM | [18] > 10 µM | [19] 14.5 µM

COC(=O)C(Cc1c[nH]c2ccccc12)NC(=O)C(Cc1c[nH]c2ccccc12)NC(=O)C(Cc1c[nH]c2ccccc12)NC(=O)C(Cc1c[nH]c2ccccc12)NC(=O)OC(C)(C)C (stereo not given) (Boc-WWWW-OMe; configuration not given here)
inactive: [1] 5.14 µM | [2] 39.4 µM | [5] 30.1 µM | [6] 3.85 µM | [7] 45.7 µM | [8] 25.1 µM | [9] 24.9 µM | [10] 15.1 µM | [11] 26.9 µM | [12] 19.5 µM | [14] > 100 µM | [15] 31.9 µM | [16] 25.5 µM | [17] 19.7 µM | [18] 79.4 µM | [19] 15.6 µM

COc1ccccc1N1C(=O)/C(=C\c2cc(OC)c(OC)c(OC)c2)S(=O)(=O)C1c1ccccc1 (stereo not given)
inactive: [1] 54.7 µM | [2] 44 µM | [4] 28.6 µM | [5] 31 µM | [6] 31.8 µM | [7] 44.8 µM | [8] 33.9 µM | [9] 61.1 µM | [10] 18.2 µM | [11] 37.2 µM | [20] 25.5 µM | [13] 20.6 µM | [14] 73.6 µM | [15] 32.6 µM | [17] 29.6 µM | [18] 70.1 µM | [19] 29.9 µM

Reference: ChEMBL document CHEMBL1201862, “PubChem BioAssay data set” (2004)
